Drawing on patent US7276606B2, “Phenantridine analogues and uses thereof” (4SC AG, priority 2004, dated 2007), this text covers inhibition for 1 compound.

In the assay the test system is HaCaT keratinocytes. Put plainly: Influence on keratinocyte proliferation (HaCaT, Cell Titer Viability Assay). In kind it is cell-based. The note with it: Homo sapiens, 25 μM test compound, KBM/FCS, 1% DMSO, 48 hrs incubation, read-out: inhibition of keratinocyte proliferation compared to control experiments. The procedure: Influence of Compounds According to the Invention on Keratinocyte Proliferation
5×10^3 HaCaT keratinocytes were seeded into 60 wells of 96 well plates in 200 μl KBM/10% FCS and incubated for 24 hrs at 37° C. The test compounds were dissolved at 100 mM in DMSO. The test items were then diluted to a concentration of 25 μM in KBM/FCS with a final concentration of 1% DMSO. The test compounds, as well as the negative control for unstimulated cells (KBM/1% DMSO) and stimulated cells (KBM/FCS/1% DMSO), were added to the HaCaTs in triplicates and incubated for 48 hrs. At the end of the incubation period, the media was removed and cell numbers were determined with Cell Titer Viability Assay from Promega (#G7571/G7572) according to the manufacturer's instructions.

Consider `COc1cccc(C(=O)N2c3ccccc3-c3ccccc3C2c2c[nH]c3ccccc23)c1` (stereo not shown) [Example 11, [6-(1H-Indol-3-yl)-6H-phenanthridin-5-yl]-(3-methoxy-phenyl)-methanone], for which the inhibition at 25 µM is over 50%.
